The source of these data is US20150038430A1, “THERAPEUTIC PEPTIDOMIMETIC MACROCYCLES” (AILERON Therapeutics, Inc., priority 2008, published 2015).

Numbered stars: 1 amine (or outer) side, 2 acyl side, 3 side chain; on linkers, the order of the positions; unused ones are H or OH. Bridge positions count the residues as written; N and C are the ends. Square brackets hold non-standard residues; d marks the D form. Peptide text beside a SMILES is read from it. ξ: configuration not given here. ξαMeNle(6-ylidene) = CC(CCCC=[*:3])(N[*:1])C(=O)[*:2]; Nle = CCCC[C@H](N)C(=O)O

The target in one experiment is Bcl-2. In words: Kd, μM | Bcl-2. An excerpt: (§1) Table printed on a drawing sheet, Figure 27
Head of the field: Kd, μM | Bcl-2
(§2) First copying reader's note: The last row (ABT-737) is a small-molecule comparator; the three plots above the table are not copied.
Where the first naming reader finds the target: head: Kd, μM | Bcl-2

For another experiment, the target named is Mcl-1. In words: Kd, μM | Mcl-1.
Text: as §1
Head of the field: Kd, μM | Mcl-1
as §2
Where the first naming reader finds the target: head: Kd, μM | Mcl-1

A further experiment concerns SEMK2. Type of experiment: cell-based, human. Particulars: 24 h. The method, then: (§3) Cell viability assays shown in FIGS. 34-52 were performed according to a similar protocol. Cells were split at optimal cell density a day prior to the initiation of the study. The next day, cells were washed twice in serum-free Opti-MEM media and 4000 cells/well were added to each well in a final volume of […] Opti-MEM. For serum-free experiments, macrocycles were diluted from 2 mM stocks (100% DMSO) in sterile water to prepare 400 μM working solutions. A 40 μM solution was then generated by ten-fold dilution in assay buffer. The macrocycle and controls were then serially diluted two-fold in assay buffer in dosing plates to provide concentrations between 1.2 and 40 μM, respectively. For experiments in 2% human serum, macrocycles were diluted from 10 mM stocks (100% DMSO) in sterile water to prepare 1 mM working solutions. A 100 μM solution was generated by ten-fold dilution in assay buffer. The macrocycles and controls were then serially diluted two-fold in assay buffer in dosing plates to provide concentrations between 3 and 100 μM, respectively. 50 μl of each dilution was then added to the appropriate wells of the test plate to achieve final concentrations of the macrocycle between 0.6 to 20 μM (for serum free experiment) or 1.5 to 50 μM (for 2% serum experiment), respectively. Controls included wells without macrocycles containing the same concentration of DMSO as the macrocycle-containing wells, wells containing 0.1% Triton X-100, and wells containing no cells. Plates were incubated for 24 hours at 37° C. in a humidified 5% CO2 atmosphere. At the end of a 24 hr incubation period, a CellTiter-Glo Luminescent Cell Viability Assay was performed according to manufacturer's instructions (Promega, catalog #G7571) and the luminescence was measured using a BIO-TEK synergy HT Plate reader. Values were plotted as percent viable, i.e. as a percentage of the negative control value (derived from cells exposed to DMSO only). All assays were performed in duplicate.
(§4) The following tables summarize the EC50 values (μM) observed with peptidomimetic macrocycles of the invention in various cell lines: […]

For another experiment, the system named is Jurkat. Type of experiment: cell-based, human. Particulars: 24 h. The method, then: as §3, §4
For a further experiment, the system named is MDA-MB231-Met. Type of experiment: cell-based, human. Particulars: 24 h. The method, then: as §3, §4
The subject of another experiment is Molt-4. Type of experiment: cell-based, human. Particulars: 24 h. As to the method: as §3, §4
The test system of a further experiment is OVCAR8. Type of experiment: cell-based, human. Particulars: 24 h. As to the method:
as §3, §4

A further experiment deals with Raji. Format: cell-based, human. Particulars: 24 h. The method, then: as §3, §4
A further experiment deals with RS4;11. Format: cell-based, human. Particulars: 24 h. The method, then:
as §3, §4

The subject of a further experiment is NCI-H82 (SCLC-MCL1+). Format: cell-based, human. Particulars: 24 h. As to the method: as §3, §4
A further experiment relates to MM1S. Format: cell-based, human. Particulars: 24 h. As to the method: as §3, §4
In a further experiment the test system is A375. Type of experiment: cell-based, human. Particulars: 24 h. As to the method: as §3, §4
Another experiment concerns the target Bcl-xL (Homo sapiens, UniProt Q07817). The experiment can be described thus: Kd, μM | Bcl-xL.
Text: as §1
Head of the field: Kd, μM | Bcl-xL
Where the first naming reader finds the target: head: Kd, μM | Bcl-xL

A further experiment deals with DHL-6. Type of experiment: cell-based, human. Particulars: 24 h. As to the method: as §3, §4
Another experiment has as its system PC3. Format: cell-based, human. Particulars: 24 h. As to the method: as §3, §4

Bcl-xL, sequence (Q07817 whole entry, looked up): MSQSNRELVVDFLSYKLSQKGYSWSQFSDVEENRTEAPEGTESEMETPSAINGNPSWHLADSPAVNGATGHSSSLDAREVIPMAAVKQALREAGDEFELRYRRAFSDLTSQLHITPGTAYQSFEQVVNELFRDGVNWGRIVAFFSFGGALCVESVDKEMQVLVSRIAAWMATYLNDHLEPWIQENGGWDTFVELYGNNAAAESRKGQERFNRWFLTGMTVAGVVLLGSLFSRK

On to `CCCC[C@H](NC(=O)C1(C)CCCC=CCCCC(C)(NC(=O)[C@H](C)NC(=O)[C@H](CC(C)C)NC(=O)[C@H](Cc2c[nH]cn2)NC(=O)[C@H](CCCNC(=N)N)NC(=O)[C@H](C)NC(=O)[C@@H](NC(=O)[C@H](CC(N)=O)NC(=O)[C@H](CCCNC(=N)N)NC(=O)[C@@H](NC(=O)[C@@H](NC(=O)[C@H](CC(=O)O)NC(C)=O)[C@@H](C)CC)[C@@H](C)CC)[C@@H](C)CC)C(=O)N[C@@H](C(C)C)C(=O)N[C@@H](CCC(=O)O)C(=O)N[C@@H](CC(=O)O)C(=O)N1)C(=O)N[C@@H](CC(=O)O)C(=O)N[C@@H](CCCNC(=N)N)C(=O)N[C@@H](CO)C(=O)N[C@H](C(N)=O)[C@@H](C)CC` (some centres unmarked) [SP-2] (Ac-DIIRNIARHLA[ξαMeNle(6-ylidene)]VED[ξαMeNle(6-ylidene)][Nle]DRSI-NH2; staple 12-16), for which the Kd on Bcl-2, on Mcl-1 and on Bcl-xL was > 10 µM in each case. Besides, the EC50 in the experiment with SEMK2, in the experiment on Jurkat, in the experiment on MDA-MB231-Met, with Molt-4, in the experiment with OVCAR8 and in the experiment with Raji was > 20 µM in each case. The EC50 with RS4;11, with NCI-H82 (SCLC-MCL1+), with MM1S and in the experiment with A375 was > 20 µM throughout.

Take `CCCC[C@H](NC(=O)[C@H](CO)NC(=O)[C@H](CC(=O)O)NC(=O)CNC(=O)[C@@H](NC(=O)[C@H](CCC(N)=O)NC(=O)[C@H](C)NC(=O)[C@H](CC(C)C)NC(=O)[C@H](Cc1c[nH]cn1)NC(=O)[C@H](CCCNC(=N)N)NC(=O)[C@H](C)NC(=O)[C@@H](NC(=O)[C@H](CC(N)=O)NC(=O)[C@H](CCCNC(=N)N)NC(=O)[C@@H](NC(=O)[C@@H](NC(=O)[C@H](CC(=O)O)NC(C)=O)[C@@H](C)CC)[C@@H](C)CC)[C@@H](C)CC)C(C)C)C(=O)N[C@@H](CC(=O)O)C(=O)N[C@@H](CCCNC(=N)N)C(=O)N[C@@H](CO)C(=O)N[C@H](C(N)=O)[C@@H](C)CC` [SP-3] (HELM PEPTIDE1{[ac].D.I.I.R.N.I.A.R.H.L.A.Q.V.G.D.S.[Nle].D.R.S.I.[am]}$$$$V2.0): the Kd is > 10 µM at Bcl-2, 0.12 µM at Mcl-1 and 0.4 µM on Bcl-xL. Moreover, the EC50 in the experiment with SEMK2, with Jurkat, with Molt-4, in the experiment with Raji, with RS4;11 and with MM1S was > 20 µM each time. Further, in the experiment with DHL-6, the EC50 was > 20 µM.

With `CC[C@H](C)[C@H](NC(C)=O)C(=O)N[C@@H](Cc1c[nH]c2ccccc12)C(=O)N[C@H](C(=O)N[C@@H](C)C(=O)N[C@@H](CCC(N)=O)C(=O)N[C@@H](CCC(=O)O)C(=O)N[C@@H](CC(C)C)C(=O)N[C@@H](CCCNC(=N)N)C(=O)NC1(C)CCCC=CCCCC(C)(C(=O)N[C@@H](Cc2ccccc2)C(=O)N[C@@H](CC(N)=O)C(=O)N[C@@H](C)C(=O)N[C@@H](Cc2ccc(O)cc2)C(=O)N[C@@H](Cc2ccc(O)cc2)C(=O)N[C@@H](C)C(=O)N[C@@H](CCCNC(=N)N)C(=O)N[C@@H](CCCNC(=N)N)C(N)=O)NC(=O)[C@H](CC(=O)O)NC(=O)[C@H](CCC(=O)O)NC(=O)[C@H]([C@@H](C)CC)NC1=O)[C@@H](C)CC` (some centres unmarked) [SP-5] (Ac-IWIAQELR[ξαMeNle(6-ylidene)]IED[ξαMeNle(6-ylidene)]FNAYYARR-NH2; staple 9-13), the dissociation constant Kd on Bcl-2, at Mcl-1 and at Bcl-xL was > 10 µM each time.

For `CC[C@H](C)[C@H](NC(C)=O)C(=O)N[C@@H](Cc1c[nH]c2ccccc12)C(=O)N[C@H](C(=O)N[C@@H](C)C(=O)N[C@@H](CCC(N)=O)C(=O)N[C@@H](C)C(=O)N[C@@H](CC(C)C)C(=O)N[C@@H](CCCNC(=N)N)C(=O)NC1(C)CCCC=CCCCC(C)(C(=O)N[C@@H](Cc2ccccc2)C(=O)N[C@@H](CC(N)=O)C(=O)N[C@@H](C)C(=O)N[C@@H](Cc2ccc(O)cc2)C(=O)N[C@@H](Cc2ccc(O)cc2)C(=O)N[C@@H](C)C(=O)N[C@@H](CCCNC(=N)N)C(=O)N[C@@H](CCCNC(=N)N)C(N)=O)NC(=O)[C@H](CC(=O)O)NC(=O)CNC(=O)[C@H]([C@@H](C)CC)NC1=O)[C@@H](C)CC` (some centres unmarked) [SP-11] (Ac-IWIAQALR[ξαMeNle(6-ylidene)]IGD[ξαMeNle(6-ylidene)]FNAYYARR-NH2; staple 9-13), the Kd on Bcl-2 was 2.8 µM; on Mcl-1, < 0.1 µM; on Bcl-xL, 0.25 µM. Also, the EC50 stood at 4.6 µM in the experiment on PC3; 2.6 µM in the experiment with SEMK2; 0.9 µM in the experiment on Jurkat; 2 µM in the experiment on MDA-MB231-Met; 1.6 µM in the experiment with Molt-4; 3.2 µM in the experiment with OVCAR8. Moreover, the EC50 is 2.7 µM in the experiment on Raji; 3.7 µM with RS4;11; 1.2 µM in the experiment on NCI-H82 (SCLC-MCL1+); 1.9 µM in the experiment with MM1S; 4.3 µM with A375; 0.9 µM in the experiment on DHL-6.

For `CCCC[C@@H]1NC(=O)CNC(=O)[C@H]([C@@H](C)CC)NC(=O)C(C)(NC(=O)[C@H](CCCNC(=N)N)NC(=O)[C@H](CC(C)C)NC(=O)[C@H](C)NC(=O)[C@H](CCC(N)=O)NC(=O)[C@H](C)NC(=O)[C@@H](NC(=O)[C@H](Cc2c[nH]c3ccccc23)NC(=O)[C@H](CCCNC(=N)N)NC(C)=O)[C@@H](C)CC)CCCC=CCCCC(C)(C(=O)N[C@@H](Cc2ccccc2)C(=O)N[C@@H](CC(N)=O)C(=O)N[C@@H](C)C(=O)N[C@@H](Cc2ccc(O)cc2)C(=O)N[C@@H](Cc2ccc(O)cc2)C(=O)N[C@@H](C)C(=O)N[C@@H](CCCNC(=N)N)C(=O)N[C@@H](CCCNC(=N)N)C(N)=O)NC1=O` (some centres unmarked) [SP-12] (Ac-RWIAQALR[ξαMeNle(6-ylidene)]IG[Nle][ξαMeNle(6-ylidene)]FNAYYARR-NH2; staple 9-13), the Kd is 2.5 µM at Mcl-1 and 0.19 µM on Bcl-xL. Besides, the EC50 is 1.9 µM in the experiment on PC3; 0.5 µM with SEMK2; 0.4 µM in the experiment with Jurkat; 0.5 µM with MDA-MB231-Met; 0.7 µM in the experiment with Molt-4; 0.7 µM with OVCAR8. For the same compound, the EC50 worked out at 0.3 µM in the experiment on Raji, 1.71 µM in the experiment with RS4;11, 0.9 µM in the experiment on NCI-H82 (SCLC-MCL1+) and 0.7 µM with A375.

In general, Kd refers to the free concentration of one partner at which half of the binding sites on the other are occupied at equilibrium, for simple one-to-one binding. Low readings indicate higher affinity, high ones lower affinity. In general, EC50 refers to the concentration that produces a half-maximal response.
